Assay results reported in patent publication US20180064687A1, “PHARMACEUTICAL COMPOSITION FOR THE PREVENTION AND TREATMENT OF DISEASES ASSOCIATED WITH ELEVATED INDUCIBLE NITRIC OXIDE SYNTHASE” (AKCIJU SABIEDRIBA "OLAINFARM', priority 2015, published 2018).
Entries after “also recorded” stand apart in the source; their conditions may differ. Where a name gives a salt, the structure may show the parent alone.

What was measured:
[1] = test system: formalin-induced nociceptive responses; settings: cited from earlier work; for nociceptive responses to formalin-produced peripheral neuropathy: systemic and intrathecal administration, mice and rats
[2] = test system: iNOS gene expression; test: LPS-induced iNOS gene overexpression in brain tissue, septic shock model (quantitative RT-PCR); format: in vivo; settings: mice; 50 mg/kg injected simultaneously with LPS 20 mg/kg i.p.; tissue sampled 6 h after; compared with LPS group
Protocol: (§1) Male ICR mice weighing 25-30 g were obtained from the Laboratory of Experimental Animals, Riga Stradins University (Riga, Latvia), and housed under standard conditions (21-23° C., relative humidity 65%±10%, 12 h light-dark cycle) with unlimited access to standard food (R70 diet, Lactamin AB, Sweden) and water. The experimental procedures were performed in accordance with the guidelines reported in EU Directive 2010/63/EU and in accordance with local laws and policies; all of the procedures were approved by the Latvian Animal Protection Ethical Committee of Food and Veterinary Service in Riga, Latvia. To eliminate systematic differences between the treatment groups, the animals were randomly assigned to their respective experimental groups (12 animals in each group for formalin test and 6 animals in each group for LPS test). To avoid subjective factors in the rating process, all experimental procedures were performed in a blinded fashion.
The iNOS gene expression was stimulated by a single intraperitoneal (i.p.) injection of LPS at a dose of 20 mg/kg 6 h before the tissue sampling. Control animals received i.p. injection of saline (0.9% NaCl). […]
Brain tissue after sampling were immediately frozen in liquid nitrogen and stored at −80° C. […] Samples were diluted with water at v/v ratio of 1:20 and the quality and quantity of extracted total RNA were examined by measuring the absorbance at 230, 260 and 280 nm with a μQuant™ (BioTek) spectrophotometer. […] Quantitative RT-PCR analysis for iNOS was performed by mixing synthesized cDNA (diluted with water at v/v ratio of 1:10), appropriate primers, and SYBR® Green Master Mix (Applied Biosystems™, USA) and run in the Applied Biosystems Prism 7500 according to the manufacturer's protocol. The transcript levels for the constitutive housekeeping gene product β-actin were quantitatively measured for each sample, and PCR data were reported as the number of transcripts per number of β-actin mRNA molecules.

[3] = test system: LPS-induced hypothermia; test: LPS-induced hypothermia (rectal temperature), septic shock model; format: in vivo; settings: mice; 50 mg/kg i.p. simultaneously with LPS 20 mg/kg; 6 h after injection
Protocol: as §1
The hypothermia was induced by an i.p. injection of LPS at a dose of 20 mg/kg. Control animals received i.p. injection of saline (0.9% NaCl). […] The rectal temperature of animals was measured using a thermometer (Thermalert TH-5, USA) at 5 min before LPS or saline injection and 6 hours after injection.

[4] = test system: formalin-induced paw licking; test: Formalin-induced paw licking test (formalin-induced peripheral neuropathy); format: in vivo; settings: mice, pre-treatment 50 mg/kg
Protocol: as §1
Formalin-induced licking paw test was performed as described previously by Zvejniece et al 2006 (Zvejniece L., Muceniece R., Krigere L., Dambrova M., Klusa V. Z. Pharmacol. Biochem. Behav. 2006, 85 (2),287-91). Briefly, mice were gently restrained and 30 μl of formalin solution (1.5% in saline) was injected s.c. into the plantar surface of the right hind paw, using a microsyringe with a 27-gauge needle. Each mouse was then placed in an individual clear Plexiglas observation chamber (30×20×30 cm) and the total licking time of hind paw of each mouse was registered and quantified in subsequent 5-minute intervals for 50 minutes. The recording of licking time started immediately (first phase) and lasted for 5 min. The late phase (second phase) started about 15-20 min after formalin injection and lasted up to 35 min.

[5] = i.p. administration; cited from earlier work
[6] = in vivo; cited from earlier work
[7] = test system: NOS; settings: patients with septic shock, cited from earlier work
[8] = phase II, compared to saline treated group

O=[N+]([O-])c1cccc2cn[nH]c12 [7-nitroindazole]
nociceptive responses to formalin-produced peripheral neuropathy [1]: reduces nociceptive responses

NC(=O)CN1C[C@@H](c2ccccc2)CC1=O [(4R)-2-(4-phenyl-2-oxopyrrolidin-1-yl)acetamide]
LPS-induced iNOS gene expression in brain tissue [2]: highly effective; also recorded: significantly reduced
LPS-induced hypothermia (rectal temperature) [3]: significantly inhibited
reduction of the paw licking behavior in phase II ([4]; phase II): 46%
paw licking response time in II phase [4, 8]: significant inhibition
dose up to which no side effects on the body system are caused [5]: ≤ 250 mg/kg
excretion from body [6]: totally excreted from body in unmetabolized form

NC(=O)CN1CC(c2ccccc2)CC1=O [(4R,S)-2-(4-phenyl-2-oxopyrrolidin-1-yl)acetamide]
LPS-induced iNOS gene expression in brain tissue [2]: tendency to reduce LPS action; also recorded: did not reduce
paw-licking time in I phase ([4]; phase I, compared to saline treated group): did not reduce; also recorded: almost no effect
paw licking response time in II phase [4, 8]: did not reduce; also recorded: almost no effect

NC(=O)CN1C[C@H](c2ccccc2)CC1=O [(4S)-2-(4-phenyl-2-oxopyrrolidin-1-yl)acetamide]
LPS-induced iNOS gene expression in brain tissue [2]: absolutely inactive; also recorded: did not reduce

N#Cc1ccc(C(=O)N2CCC3(CC2)N=C(N)c2c(F)ccc(F)c2N3)cn1 [AR-C102222]
peripheral nociception in formalin-induced paw licking test II phase [1]: reduce peripheral nociception

COC(=O)[C@@H](N)CCCNC(=N)N[N+](=O)[O-] [L-NAME, Nω-nitro-L-arginine methyl ester]
nociceptive responses to formalin-produced peripheral neuropathy [1]: reduces nociceptive responses
results of the phase II trial in septic shock ([7]; placebo-controlled double-blind study): promising
mortality in the treatment group, phase III trial ([7]; trial terminated prematurely): increase in mortality

N=C(N)NN [aminoguanidine hydrochloride]
peripheral nociception in formalin-induced paw licking test II phase [1]: reduce peripheral nociception

CN(C)CCC=C1c2ccccc2CCc2ccccc21 [amitriptyline]
peripheral nociception in formalin-induced paw licking test II phase [1]: anti-nociceptive activity

NCC1(CC(=O)O)CCCCC1 [gabapentin]
peripheral nociception in formalin-induced paw licking test II phase [1]: anti-nociceptive activity

CC(C)C[C@H](CN)CC(=O)O [pregabalin]
peripheral nociception in formalin-induced paw licking test II phase [1]: anti-nociceptive activity
